# Source: patent publication US20220387392A1, “METHODS AND COMPOSITIONS RELATED TO THE USE OF ERGOTHIONEINE” (priority 2020, published 2022)
# Assays:
# [1] = test system: primary neonatal fibroblast cells; assay: MTT assay, cytotoxicity of ergothioneine; type: cell-based, human; details: all concentrations tested (0.04, 0.1, 0.3, and 1.0 mg/ml); 72 hours and one week; with and without 10 μM H2O2
# Experimental: (§1) Primary cultures of human neonatal dermal fibroblasts (ATCC® PCS-201-010™) were established under standard culture conditions. Cells were seeded at 3×10^3 cells/cm^2 and were grown and maintained in Fibroblast Medium (Innoprot).
# The MTT assay is a colorimetric assay that uses a yellow tetrazolium salt (3-(4,5-dimethylthiazol-2-yl)-2,5-diphenyltetrazolium bromide, or MTT) to measure metabolic activity of cells as a proxy for cell viability. MTT reduction rate is an indicator of the functional integrity of the mitochondria and as a result, of cellular viability. To determine the cytotoxicity of ergothioneine on primary neonatal fibroblast cells, the cells were seeded in 96 well plates (Nunc) at 0.35×10^4 cells/plate and 0.5×10^4 cells/plate for 72 hours and 1-week treatment. After 24 hours from seeding, the cells were washed once with phosphate-buffered saline (PBS) and treated with the respective compounds in cell culture media. Ergothioneine was dissolved in dimethyl sulfoxide (DMSO). […] Each condition was tested in triplicates with and without 10 μM H2O2. For positive and negative controls, 8 mM methyl methane sulfonate (MMS) and DMSO 100% were used, respectively. […] Absorbance was measured using an Envision multiplate reader at a wavelength of 570 nm.
# The percentage of cell death was calculated using the following equation: […]
# [2] = test system: neonatal human fibroblast cells; assay: Proliferative analysis (population doubling, growth curves); type: cell-based
# Experimental: (§2) Primary cultures of neonatal human fibroblast cells were established. Cells were seeded at 5×10^3 cells/cm^2), in Fibroblast Medium (Innoprot). Media was renewed every 2 to 3 days and cells were passaged at sub-confluence (70-80%) every 7 days. Cells were expanded during eight weeks under standard and oxidative (10 μM H2O2) cell culture condition as described previously. Different concentrations of ergothioneine (0.04, 0.3, 0.1, and 1.0 mg/ml) or vehicle control were added to the treated or control cells, respectively. Treatment dilutions were prepared fresh in each passage with fresh media. Cell growth was monitored for each condition by counting cell numbers at each passage using a Countess™ cell counter (Invitrogen). Population doubling (PD) was calculated with the formula PD=3.322(Log(Cf)−Log (Ci))+X (where, Cf: Final concentration; Ci: initial concentration; X: PD last passage). One PD is equivalent to one round of cell replication.
# (§3) Each treatment was tested in triplicate and in different plates. Each plate contained a control sample. Frozen vials were obtained at different time points for analysis of relative telomerase activity and telomere length.
# [3] = humans, supplementation for 7 days, cited from earlier work
# [4] = test system: primary neonatal fibroblast cells; assay: Morphological analysis through optical microscopy visualization; type: cell-based, human; details: concentrations of up to 1.0 mg/ml
# [5] = test system: human neonatal dermal fibroblasts; assay: Telomere length measurement by Telomere Analysis Technology (TAT, HT Q-FISH); type: cell-based; details: for proportion of short telomeres (<3 kbp): control 8.1±0.6
# Experimental: as §1, §2, §3
# All telomere length measurements were performed using Life Length's proprietary Telomere Analysis Technology (TAT®). TAT® measures telomere length using a high-throughput (HT) Q-FISH (quantitative fluorescent in situ hybridization) technique as previously described. This method is based on a quantitative fluorescence in-situ hybridization method modified for measuring individual chromosomes of cells in interphase. In brief, telomeres are hybridized with a fluorescent Peptide Nucleic Acid probe (PNA) that recognizes three telomere repeats (sequence: Alexa488-OO-CCCTAACCCTAACCCTAA, purchased from Panagene). The images of the nuclei and telomeres are captured by a high-content screen system. The intensity of the fluorescent signal from the telomeric PNA probes that hybridize to a given telomere is proportional to the length of that telomere. The intensities of fluorescence are translated to base pairs (bp) through a standard regression curve which is generated using control cell lines with known telomere length. TAT® not only measures telomere length in absolute base pair units, it also provides an assessment of the distribution, 50th and 20th percentiles of telomere length and the percent of short telomeres, allowing for a more comprehensive analysis of each sample. All samples are run in quintuplicate.
# Results obtained from each treatment and at each time point were compared with the appropriate control group using Student's t test (independent samples t-test).
# telomerase = assay: Relative telomerase activity (Q-TRAP); type: cell-based, human
# Experimental: The quantitative polymerase chain reaction (PCR)-based telomeric repeat amplification protocol (Q-TRAP) is a sensitive and accurate PCR-based assay that enables the measurement of telomerase activity. Cellular pellets from neonatal fibroblast cells were lysed using the CHAPS (3-cholamidopropyl dimethylammonio 1-propanesulfonate) lysis buffer for protein extraction. Samples were stored at 4° C. and were used within 24 hours. Protein quantification was performed for each sample using Biorad protein assay (Bio-Rad Kit 50000002). A minimum of 0.3 mg/ml protein concentration was required to proceed with the analysis of the samples. Telomerase protein extracts are then incubated at 27° C. for 30 min to allow the telomerase in the protein extracts to elongate the TS primer by adding TTAGGG repeat sequences. Following the enzymatic reaction, telomerase extension products are then amplified and quantified by real-time qPCR using SYBR Green (a green fluorescent cyanine dye). PCR was initiated at 95° C. for 10 min, followed by a 40-cycle amplification (95° C. for 15 s, 60° C. for 60 s) and a melt curve stage step. Reactions were monitored and analyzed with QuantStudio 5 (Applied Biosystems). Telomerase activity in cell lines or samples is calculated based on the threshold cycle (Ct). All samples were run in triplicate.
# The telomerase-positive standard dilution series is plotted against the telomere protein concentration (r^2>0.9) as a standard curve of Ct values. The standard curve is generated by graphing threshold cycles (Ct values) of HeLa cell line standards against log of 1000, 333, 111, 37.03, 12.34, 4.11, 1.37 and 0.45 ng of protein (whole cell extract).
# [6] = ingested; rats; cited from earlier work
smiles,measurement,setting,value
C[N+](C)(C)[C@@H](Cc1c[nH]c(=S)[nH]1)C(=O)[O-] [ergothioneine],cell death,[1],< 20%
same,proliferative capacity vs control,"[2]; oxidative culture conditions (10 μM H2O2), 1.0 or 0.3 mg/ml, after Week 4",increase in their proliferative capacity
same,proliferative capacity vs control,"[2]; standard culture conditions, 0.04-1.0 mg/ml, 8 weeks",no differences
same,concentration in whole blood,[3]; approximately,30 to 40 µM
same,concentration in plasma,[3],approximately 3 μM
same,deleterious effects by morphological analysis,[4],did not produce any deleterious effects
same,effect on telomeres (FIG. 7D),[5]; dose of 0.3 mg/ml,telomere lengthening
same,median telomere length vs control,"[5]; oxidative conditions (10 μM H2O2), Week 4, 0.1 or 1.0 mg/ml, p<0.05",higher median telomere length
same,median telomere length,"[5]; oxidative conditions (10 μM H2O2), Week 8, 0.04 mg/ml, control 8725±94",9015±112 bp
same,median telomere length,"[5]; oxidative conditions (10 μM H2O2), Week 8, 0.1 mg/ml, control 8725±94",8794±212 bp
same,median telomere length,"[5]; oxidative conditions (10 μM H2O2), Week 8, 0.3 mg/ml, control 8725±94 bp, in bp",9068±24
same,median telomere length,"[5]; oxidative conditions (10 μM H2O2), Week 8, 1.0 mg/ml, control 8725±94",8997±171 bp
same,20th percentile telomere length vs control,"[5]; oxidative conditions, Week 4, 0.1, 0.3, or 1.0 mg/ml, p<0.05",greater telomere length
same,reduction of telomere shortening rate,"[5]; oxidative conditions, Week 4, all concentrations, significant for 0.04, 0.1 and 1.0 mg/ml",27-52%
same,percentage of short telomeres (<3 kbp) vs control,"[5]; oxidative conditions, Week 4 and Week 8, all concentrations",reduced the percentage of short telomeres
same,20th percentile telomere length vs control,"[5]; oxidative conditions, Week 8, all concentrations",significant increases
same,telomere shortening rate vs control,"[5]; oxidative conditions, Week 8, did not reach statistical significance",appeared to be lower
same,20th percentile telomere length vs control,"[5]; standard conditions, Week 4, 0.3 mg/ml or 1.0 mg/ml",greater
same,proportion of short telomeres (<3 kbp),"[5]; standard conditions, Week 4, 0.3 mg/ml",7.3±1.1%
same,median telomere length,"[5]; standard conditions, Week 4, 0.3 mg/ml, control 9378±107",9637±340 bp
same,proportion of short telomeres (<3 kbp),"[5]; standard conditions, Week 4, 1.0 mg/ml",6.8±1.0%
same,median telomere length,"[5]; standard conditions, Week 4, 1.0 mg/ml, control 9378±107",9745±206 bp
same,telomere shortening rate vs control,"[5]; standard conditions, Week 4, 1.0 mg/ml, p=0.09",trend for decreased telomere shortening rate
same,telomere shortening rate vs control,"[5]; standard conditions, Week 4, 0.1 or 0.3 mg/ml, normalized by population doublings",significantly lower
same,protective effects on telomeres seen at Week 4,"[5]; standard conditions, Week 8",no longer present
same,telomerase activity vs control cells,"telomerase; 6 hours, all dose levels",significantly lower
same,"telomerase activity, higher compared with control cells","telomerase; 24 hours, all dose levels, p<0.05",50-90%
same,telomerase activity vs control,"telomerase; 48 hours, statistically significant only for 0.04 mg/ml and 1.0 mg/ml",still elevated
same,telomerase activity vs control,telomerase; 72 hours,not significantly different
same,whole-body half-life,[6],1 month
